Assay results reported in the SangsterLogP compilation.

Assay: method code SF-AS, from DOI: 10.1135/cccc19851642

SMILES | logP
CCC(C)OC(=O)/C=C/c1ccc([N+](=O)[O-])o1 (stereo not given) | 3.09
COC(=O)/C(C#N)=C/c1ccc(SC)o1 | 2.61
O=[N+]([O-])/C=C/c1ccc([N+](=O)[O-])o1 | 1.3
CCCCOC(=O)C=Cc1ccc([N+](=O)[O-])o1 | 2.83
CC(C)(C)OC(=O)C=Cc1ccc([N+](=O)[O-])o1 | 3.09
NC(=O)/C=C/c1ccc([N+](=O)[O-])o1 | 0.65
CC(C)(C)NC(=O)C=Cc1ccc([N+](=O)[O-])o1 | 2.33
CC(C)COC(=O)/C=C/c1ccc([N+](=O)[O-])o1 | 3.14
CCCCCOC(=O)C=Cc1ccc([N+](=O)[O-])o1 | 3.4
CSc1ccc(C=C(C#N)C#N)o1 | 2.45
CN(C)C(=O)/C=C/c1ccc([N+](=O)[O-])o1 | 0.82
COC(=O)/C(C#N)=C/c1ccc(C)o1 | 2.09
O=C(O)/C=C/c1ccc([N+](=O)[O-])o1 | 0.68
N#CC(C#N)=Cc1ccc(I)o1 | 2.42
O=[N+]([O-])c1ccc(C=CBr)o1 | 2.45
CC(C)OC(=O)/C=C/c1ccc([N+](=O)[O-])o1 | 2.64
COC(=O)C(C#N)=Cc1ccc(I)o1 | 2.75
CCCOC(=O)C=Cc1ccc([N+](=O)[O-])o1 | 2.67
CCCCCCCCCCCC(C)NC(=O)C=Cc1ccc([N+](=O)[O-])o1 (stereo not given) | 3.7
COC(=O)C(C#N)=Cc1ccc(Br)o1 | 2.41
CCOC(=O)C(=Cc1ccc([N+](=O)[O-])o1)C(=O)OCC | 2.5

Now from value to compound:

logP | SMILES
2.23 | CC(C)CNC(=O)C=Cc1ccc([N+](=O)[O-])o1
2.1 | CCOC(=O)/C=C/c1ccc([N+](=O)[O-])o1
2.36 | CCCCNC(=O)C=Cc1ccc([N+](=O)[O-])o1
1.8 | CC(C)NC(=O)/C=C/c1ccc([N+](=O)[O-])o1
0.98 | CNC(=O)C=Cc1ccc([N+](=O)[O-])o1
2.28 | CCC(C)NC(=O)C=Cc1ccc([N+](=O)[O-])o1 (stereo not given)
2.61 | CC(C)(C)CNC(=O)C=Cc1ccc([N+](=O)[O-])o1
1.39 | CCNC(=O)C=Cc1ccc([N+](=O)[O-])o1
1.86 | CCCNC(=O)C=Cc1ccc([N+](=O)[O-])o1
